Assay results from paper PMC6040592 (Biochemistry, 2017).
pIC50: −log10 of the molar value.

Experiments:
rhomboids = details: read-out: IC50 against rhomboids; isocoumarins; cited from earlier work
GlpG = GlpG (Escherichia coli, UniProt P09391); details: 1 h preincubation at 10 times IC50, 100-fold dilution, 100 min
TmROM = assay: Activity-based probe; details: 50 μM
VcROM = assay: Activity-based probe; details: 50 μM
E. coli GlpG [1] = target: T1, E. coli GlpG (Escherichia coli, UniProt P09391)
[2] = target: neutrophil elastase, ELA2 (Homo sapiens, UniProt P08246); details: same concentration range in which GlpG is inhibited
HiGlpG = HiGlpG (Haemophilus influenzae, UniProt P44783); assay: Activity-based probe; details: 50 μM
MjROM = assay: Activity-based probe; details: 50 μM
AaROM [3] = assay: Activity-based probe; details: 50 μM
PsAarA = PsAarA (Providencia stuartii, UniProt P46116); assay: Activity-based probe; details: 50 μM
AaROM [4] = assay: AaROM in vitro activity assay; type: biochemical, Aquifex aeolicus
wild-type GlpG = wild-type GlpG (Escherichia coli, UniProt P09391); details: 50 μM inhibitor, 23 °C overnight
[5] = tested on: nine different rhomboid proteases; assay: Activity-based probe; type: binding; details: 50 μM
E. coli GlpG [6] = target: T1, E. coli GlpG; assay: GlpG in vitro activity assay; type: biochemical; details: read-out: IC50 [μM] GlpG; inhibitor preincubated 30 min at 37 °C, Gurken substrate, 90 min
bovine chymotrypsin = bovine chymotrypsin (Bos taurus, UniProt P00766); details: read-out: IC50 α-chymotrypsin, value reported in the literature; cited from earlier work

T1 sequence (P09391 whole entry): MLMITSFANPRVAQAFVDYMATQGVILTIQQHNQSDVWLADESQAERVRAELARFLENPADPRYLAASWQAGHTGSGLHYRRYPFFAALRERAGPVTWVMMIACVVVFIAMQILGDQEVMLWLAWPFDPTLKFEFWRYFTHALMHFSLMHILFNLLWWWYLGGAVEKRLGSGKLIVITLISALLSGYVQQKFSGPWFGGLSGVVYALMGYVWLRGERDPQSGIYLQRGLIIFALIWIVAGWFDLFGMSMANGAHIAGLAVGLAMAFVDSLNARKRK
Chain of GlpG (P09391 whole entry): as above
Chain of neutrophil elastase, ELA2 (P08246 30-267): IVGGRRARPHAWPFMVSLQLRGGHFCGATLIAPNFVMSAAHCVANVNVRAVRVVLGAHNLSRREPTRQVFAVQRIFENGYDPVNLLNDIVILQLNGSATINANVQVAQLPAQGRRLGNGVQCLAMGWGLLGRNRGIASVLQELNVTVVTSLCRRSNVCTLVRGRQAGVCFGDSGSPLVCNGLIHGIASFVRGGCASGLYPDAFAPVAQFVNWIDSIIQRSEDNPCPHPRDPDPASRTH
Chain of HiGlpG (P44783 whole entry): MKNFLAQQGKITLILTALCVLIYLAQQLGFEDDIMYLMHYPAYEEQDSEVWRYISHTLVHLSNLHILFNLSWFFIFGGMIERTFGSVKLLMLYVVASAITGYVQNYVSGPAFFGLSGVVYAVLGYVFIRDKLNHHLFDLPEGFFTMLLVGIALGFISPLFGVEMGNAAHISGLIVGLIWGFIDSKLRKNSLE
Chain of PsAarA (P46116 whole entry): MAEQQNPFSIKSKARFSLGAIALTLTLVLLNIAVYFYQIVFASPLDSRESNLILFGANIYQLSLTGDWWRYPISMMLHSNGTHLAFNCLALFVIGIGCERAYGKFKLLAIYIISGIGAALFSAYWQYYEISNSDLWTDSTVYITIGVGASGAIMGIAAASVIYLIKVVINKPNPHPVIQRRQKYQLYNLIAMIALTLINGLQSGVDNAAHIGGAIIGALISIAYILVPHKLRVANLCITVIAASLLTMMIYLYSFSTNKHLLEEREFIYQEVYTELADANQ
Chain of wild-type GlpG (P09391 whole entry): as the sequence (P09391 whole entry) above

Row | SMILES | pIC50 (rhomboids) | recovery of GlpG activity after rapid dilution (GlpG) | inhibition of ABP labelling, TmROM (TmROM) | inhibition of ABP labelling, VcROM (VcROM) | inhibition of ABP labelling, E. coli GlpG (E. coli GlpG [1]) | inhibition of neutrophil elastase, ELA2 [2] | inhibition of ABP labelling, HiGlpG (HiGlpG) | inhibition of ABP labelling, MjROM (MjROM) | inhibition of ABP labelling, AaROM (AaROM [3]) | inhibition of ABP labelling, PsAarA (PsAarA) | fold lower potency toward AaROM in comparison to GlpG (AaROM [4]) | mass shift of inhibitor-GlpG adduct (wild-type GlpG) | inhibition of the activity of all nine rhomboids [5] | IC50 (E. coli GlpG [6]) | pIC50 (bovine chymotrypsin)
1 | COc1oc(=O)c2cc(N)ccc2c1Cl [JLK-6, reference compound] | ~5.22 | No recovery of enzyme activity |  |  |  |  |  |  |  |  |  |  |  |  | 
2 | O=C(OCN1C(=O)c2ccccc2S1(=O)=O)c1ccccc1Cl [BSc5195] |  | less but noticeable recovery of GlpG activity | only partially inhibited | active | active | appreciable inhibition | active | active | only partially inhibited | active | approximately 100 fold | 195 Da |  |  | 
3 | O=c1oc(Cl)c(Cl)c2ccccc12 [DCI, dichloroisocoumarin] |  |  |  |  |  |  |  |  |  |  |  |  | 80–100% | 19 µM | 5.55
